Results reported in patent US10966426B2, “Herbicidal compositions comprising phenylpyrimidines” (BASF SE, priority 2016, dated 2021).

Key:
Assay type in all cases: in vivo
Poa annua = test: greenhouse post-emergence treatment, POAAN; conditions: Poa annua
Method: (§1) The culture containers used were plastic pots containing loamy sand with approximately 3.0% of humus as substrate. The seeds of the test plants were sown separately for each species.
(§2) For the post-emergence treatment, the test plants were grown to a plant height of from 3 to 15 cm, depending on the plant habit, and only then treated with the active compounds which had been suspended or emulsified in water. To this end, the test plants were either sown directly, and grown in the same containers, or they were first grown separately as seedlings and transplanted into the test containers a few days prior to treatment.
(§3) Depending on the species, the plants were kept at 10-25° C. and 20-35° C., respectively.
(§4) The test period extended over 2 to 4 weeks. During this time, the plants were tended and their response to the individual treatments was evaluated.
(§5) Evaluation was carried out using a scale from 0 to 100. 100 means no emergence of the plants, or complete destruction of at least the above-ground parts, and 0 means no damage or normal course of growth. A good herbicidal activity is given at values of at least 70, and very good herbicidal activity is given at values of at least 85.
(§6) The respective stated components A and B, and if appropriate, C were formulated as a 10% by weight strength emulsion concentrate and, with addition of the amount of solvent system, introduced into the spray liquor used for applying the active compound. In the examples, the solvent used was water.
(§7) In the examples below, using the method of S. R. Colby (1967) “Calculating synergistic and antagonistic responses of herbicide combinations”, Weeds 15, p. 22ff., the value E, which is expected if the activity of the individual active compounds is only additive, was calculated. E=X+Y−(X·Y/100) where X=effect in percent using herbicide A at an application rate a; • Y=effect in percent using herbicide B at application rate b; • E=expected effect (in %) of herbicide A+herbicide B at application rates a+b.

Papaver rhoeas = test: greenhouse post-emergence treatment, PAPRH; conditions: Papaver rhoeas, 480 h, PAPRH, 20 DAT
Method: as §1, §2, §3, §4, §5, §6, §7

Avena fatua = test: greenhouse post-emergence treatment, AVEFA; conditions: Avena fatua, AVEFA; for pest or weed control at 12.5 g/ha: 480 h, 20 DAT; for inhibition at 500000 µg/mL (stock): sc, 504 h, 21 DAT
Method: as §1
(§8) To this end, the test plants were either sown directly, and grown in the same containers, or they were first grown separately as seedlings and transplanted into the test containers a few days prior to treatment.
as §3, §4, §5
(§9) In the examples, the solvent used was water.
(§10) In the examples below, using the method of S. R. Colby (1967) “Calculating synergistic and antagonistic responses of herbicide combinations”, Weeds 15, p. […] E=X+Y−(X·Y/100) where X=effect in percent using herbicide A at an application rate a; • Y=effect in percent using herbicide B at application rate b; • E=expected effect (in %) of herbicide A+herbicide B at application rates a+b.

Matricaria chamomilla = test: greenhouse post-emergence treatment, MATCH; conditions: Matricaria chamomilla; for inhibition at 500000 µg/mL (stock): sc, 504 h, MATCH, 21 DAT
Method: as §1, §2, §3, §4, §5, §6, §7

Lolium multiflorum = test: greenhouse post-emergence treatment, LOLMU; conditions: Lolium multiflorum, LOLMU; for inhibition at 500000 µg/mL (stock): sc, 504 h, 21 DAT
Method: as §1, §8, §3, §4, §5, §9, §10

Polygonum convolvulus = test: greenhouse post-emergence treatment, POLCO; conditions: Fallopia convolvulus; for inhibition at 500000 µg/mL (stock): sc, 504 h, POLCO, 21 DAT
Method: as §1, §2, §3, §4, §5, §6, §7

Bromus sterilis = test: greenhouse post-emergence treatment, BROST
Method: as §1, §8, §3, §4, §5, §9, §10

Brachiaria decumbens = test: greenhouse post-emergence treatment, BRADC; conditions: for inhibition at 500000 µg/mL (stock): sc, 504 h, 21 DAT
Method: as §1, §2, §3, §4, §5, §6, §7

Polygonum aviculare = test: greenhouse post-emergence treatment, POLAV; conditions: POLAV
Method: as §1, §2, §3, §4, §5, §6, §7

Setaria viridis = test: greenhouse post-emergence treatment, SETVI; conditions: Setaria viridis, sc, 504 h, SETVI, 21 DAT, solo metazachlor (SC 500 g/l) 31.25 gai/ha
Method: as §1, §8, §3, §4, §5, §9, §10

Galium aparine = test: greenhouse post-emergence treatment, GALAP; conditions: Galium aparine, 504 h, GALAP, 21 DAT, solo metazachlor (SC 500 g/l) 250 gai/ha
Method: as §1, §2, §3, §4, §5, §6, §7

Stellaria media = test: greenhouse post-emergence treatment, STEME; conditions: Stellaria media, sc, 504 h, STEME, 21 DAT
Method: as §1, §2, §3, §4, §5, §6, §7

Digitaria sanguinalis = test: greenhouse post-emergence treatment, DIGSA; conditions: Digitaria sanguinalis, sc, 504 h, DIGSA, 21 DAT
Method: as §1, §8, §3, §4, §5, §9, §10

[1] = solo cycloxydim (EC 100 g/l) 12.5 gai/ha
[2] = solo metazachlor (SC 500 g/l) 62.5 gai/ha
[3] = solo metazachlor (SC 500 g/l) 125 gai/ha
[4] = solo metazachlor (SC 500 g/l) 250 gai/ha
[5] = solo metazachlor (SC 500 g/l) 31.25 gai/ha

CCCC(=NOCC)C1=C(O)CC(C2CCCSC2)CC1=O (centres unmarked) [cycloxydim]
pest or weed control at 12.5 g/ha (Poa annua; 480 h): 0%
pest or weed control at 25 g/ha (Poa annua; 480 h): 0%
pest or weed control at 50 g/ha (Poa annua; 480 h): 0%
pest or weed control at 100 g/ha (Poa annua; 480 h): 0%
pest or weed control at 12.5 g/ha (Papaver rhoeas; [1]): 0%
pest or weed control at 100 g/ha (Papaver rhoeas; solo cycloxydim (EC 100 g/l) 100 gai/ha): 0%
pest or weed control at 12.5 g/ha (Avena fatua; [1]): 20%
pest or weed control at 12.5 g/ha (Avena fatua; cycloxydim solo (EC 100 g/l), 12.5 gai/ha): 20%
pest or weed control at 12.5 g/ha (Matricaria chamomilla; 480 h): 0%
pest or weed control at 25 g/ha (Matricaria chamomilla; 480 h): 0%
pest or weed control at 50 g/ha (Matricaria chamomilla; 480 h): 0%
pest or weed control at 100 g/ha (Matricaria chamomilla; 480 h): 0%
pest or weed control at 12.5 g/ha (Lolium multiflorum; 480 h, cycloxydim solo (EC 100 g/l), 12.5 gai/ha, 20 DAT): 90%
pest or weed control at 12.5 g/ha (Polygonum convolvulus; 480 h): 0%
pest or weed control at 25 g/ha (Polygonum convolvulus; 480 h): 0%
pest or weed control at 50 g/ha (Polygonum convolvulus; 480 h): 0%
pest or weed control at 100 g/ha (Polygonum convolvulus; 480 h): 0%
% activity (Bromus sterilis; BROST, 20 DAT, solo cycloxydim (EC 100 g/l) 12.5 gai/ha): 25%
pest or weed control at 12.5 g/ha (Bromus sterilis; Bromus sterilis, 480 h): 25%
% activity (Brachiaria decumbens; BRADC, 20 DAT, solo cycloxydim (EC 100 g/l) 12.5 gai/ha): 65%
pest or weed control at 12.5 g/ha (Brachiaria decumbens; Urochloa decumbens, 480 h): 65%
% activity (Polygonum aviculare; 20 DAT, solo cycloxydim (EC 100 g/l) 12.5 gai/ha): 0%
% activity (Polygonum aviculare; 20 DAT, solo cycloxydim (EC 100 g/l) 25 gai/ha): 0%
% activity (Polygonum aviculare; 20 DAT, solo cycloxydim (EC 100 g/l) 50 gai/ha): 0%
% activity (Polygonum aviculare; 20 DAT, solo cycloxydim (EC 100 g/l) 100 gai/ha): 0%
% activity (Polygonum aviculare; cycloxydim solo (EC 100 g/l), 12.5 gai/ha, 20 DAT): 0%
% activity (Polygonum aviculare; cycloxydim solo (EC 100 g/l), 25 gai/ha, 20 DAT): 0%
% activity (Polygonum aviculare; cycloxydim solo (EC 100 g/l), 100 gai/ha, 20 DAT): 0%

Cc1cccc(C)c1N(Cn1cccn1)C(=O)CCl [metazachlor]
inhibition at 500000 µg/mL (stock) (Poa annua; 504 h, POAAN, 21 DAT, solo metazachlor (SC 500 g/l) 250 gai/ha): 85%
inhibition at 500000 µg/mL (stock) (Avena fatua; [2]): 10%
inhibition at 500000 µg/mL (stock) (Avena fatua; [3]): 0%
inhibition at 500000 µg/mL (stock) (Avena fatua; [4]): 10%
inhibition at 500000 µg/mL (stock) (Matricaria chamomilla; [5]): 0%
inhibition at 500000 µg/mL (stock) (Matricaria chamomilla; [2]): 0%
inhibition at 500000 µg/mL (stock) (Matricaria chamomilla; [4]): 20%
inhibition at 500000 µg/mL (stock) (Lolium multiflorum; [5]): 30%
inhibition at 500000 µg/mL (stock) (Lolium multiflorum; [3]): 85%
inhibition at 500000 µg/mL (stock) (Lolium multiflorum; [4]): 85%
inhibition at 500000 µg/mL (stock) (Polygonum convolvulus; [5]): 0%
inhibition at 500000 µg/mL (stock) (Polygonum convolvulus; [2]): 0%
inhibition at 500000 µg/mL (stock) (Polygonum convolvulus; [3]): 10%
inhibition at 500000 µg/mL (stock) (Polygonum convolvulus; [4]): 20%
inhibition at 500000 µg/mL (stock) (Setaria viridis): 65%
inhibition at 500000 µg/mL (stock) (Galium aparine): 85%
inhibition at 500000 µg/mL (stock) (Stellaria media; [5]): 0%
inhibition at 500000 µg/mL (stock) (Stellaria media; [2]): 0%
inhibition at 500000 µg/mL (stock) (Stellaria media; [3]): 25%
inhibition at 500000 µg/mL (stock) (Stellaria media; [4]): 35%
inhibition at 500000 µg/mL (stock) (Digitaria sanguinalis; [5]): 0%
inhibition at 500000 µg/mL (stock) (Digitaria sanguinalis; [4]): 75%
inhibition at 500000 µg/mL (stock) (Brachiaria decumbens; Urochloa decumbens, BRADC, solo metazachlor (SC 500 g/l) 31.25 gai/ha): 10%
inhibition at 500000 µg/mL (stock) (Brachiaria decumbens; Urochloa decumbens, BRADC, solo metazachlor (SC 500 g/l) 62.5 gai/ha): 20%
inhibition at 500000 µg/mL (stock) (Brachiaria decumbens; Urochloa decumbens, BRADC, solo metazachlor (SC 500 g/l) 125 gai/ha): 25%
inhibition at 500000 µg/mL (stock) (Brachiaria decumbens; Urochloa decumbens, BRADC, solo metazachlor (SC 500 g/l) 250 gai/ha): 60%
inhibition at 500000 µg/mL (stock) (Polygonum aviculare; Polygonum aviculare, 504 h, 21 DAT, solo metazachlor (SC 500 g/l) 125 gai/ha): 25%
% activity (Polygonum aviculare; metazachlor solo (SC 500 g/l), 31.25 gai/ha, 21 DAT): 20%
